Results: patent US8815535B2, “Disk diffusion assay for oritavancin” (The Medicines Company, priority 2011, dated 2014)
Where “and” joins values, the source holds several entries; their conditions need not be identical. Equal values may be shown once. Read-outs that look alike come from different tables or passages of the source.

Experiments:
[1] = system: MRSA U206056; test: Disk diffusion assay (zone of inhibition); type: cell-based, Staphylococcus aureus; conditions: for zone of inhibition at 360 µg/disc: read-out: Zone diameter (mm ± SD)
Text: (§1) The study was designed to identify conditions that improve oritavancin diffusion in agar and consequently yield a zone diameter ≧15 mm for the CLSI quality control strain MSSA ATCC 25923. Excipients that increased the disk diffusion of oritavancin in agar relative to disks containing only oritavancin were identified and selected for further study. […] A prediffusion step at room temperature was introduced to maximize oritavancin diffusion prior to initiation of bacterial growth. In this step, the antimicrobial disks were placed on agar plates seeded with a bacterial isolate and incubated at room temperature for 3 hours. Plates were then incubated overnight at 37° C. Zone diameters around the disks in which bacterial growth was inhibited were measured with a ruler and reported in millimeters.
(§2) Ethanol-sterilized Whatman paper disks (6 mm diameter) were allowed to dry then impregnated with 20 microliters of oritavancin solution containing total amounts ranging from 90 to 360 micrograms. Disks were allowed to dry at room temperature for various times prior to use.
(§3) Bacterial suspensions were prepared and adjusted to an optical density of 0.1 at 600 nm. Standard cation-adjusted Mueller Hinton agar plates (90 mm diameter) were seeded with bacterial suspensions by initially swabbing the center of plate then moving outward towards the edge. The plate was swabbed a second time, perpendicular to the orientation of the first swab. To assess the impact of prediffusion on diameter of inhibition zones, two disks were immediately placed on one half of the plate and the plate was incubated for 3 hours at room temperature. After 3 hours, two additional disks were placed on the other half of the plate then the plate was incubated overnight at 37° C. Zone diameters were measured with a ruler and reported in millimeters.
(§4) Oritavancin powder was dissolved in freshly-prepared solutions of the indicated excipients at concentrations of 0.625, 1.25, 2.5, 5, and 10 mg/ml (adjusted for potency based on lot 875561L00 purity of 83.1%) by vortexing for a minimum of 5 minutes. Oritavancin solutions in the various excipients, while not visually clear, were free from any apparent particulates as assessed visually. Sterile Oxoid blank disks were impregnated with 20 μl of these oritavancin solutions, resulting in oritavancin disk loads ranging from 12.5 to 200 μg. Unless indicated otherwise, disks were allowed to dry overnight at room temperature prior to use.
(§5) Bacterial suspensions from isolated colonies on overnight cation-adjusted Mueller Hinton agar plates were prepared in sterile saline and adjusted to an optical density of 0.1 at 600 nm Standard cation-adjusted Mueller Hinton agar plates (90 mm diameter) were seeded with bacterial suspensions by initially swabbing the center of plate then moving outward. Swabbing was continued at a right angle and then at an oblique angle to the first and second swabs. Disks were placed upon the seeded plates with sterile forceps. Plates were then incubated overnight at 37° C. and inhibition zone diameters were measured with a ruler and reported in millimeters.

[2] = system: hVISA NRS2; test: Disk diffusion assay (zone of inhibition); type: cell-based, Staphylococcus aureus; conditions: for zone of inhibition at 90 µg/disc: 90 μg oritavancin; for zone of inhibition at 180 µg/disc: 180 μg oritavancin; for zone of inhibition at 12.5 µg/disc: 12.5 μg in 4% P80/Span 80 (1:1); for zone of inhibition at 200 µg/disc: 200 μg in 4% P80/Span 80 (1:1)
Text: as §1, §2, §3, §4, §5

[3] = Staphylococcus aureus, NRS2, 192 h, NRS2, 2.5% P80, disks stored 8 days, prediffusion, read-out: Average zone diameter
[4] = Staphylococcus aureus, NRS2, 336 h, NRS2, 5% P80, disks stored 14 days, prediffusion, read-out: Average zone diameter
[5] = Staphylococcus aureus, NRS2, 336 h, NRS2, 10% P80, disks stored 14 days, prediffusion, read-out: Average zone diameter
[6] = Staphylococcus aureus, NRS2, NRS2, calcium alginate swab, dried overnight, read-out: Inhibition zone diameter
[7] = Staphylococcus aureus, NRS2, NRS2, cotton swab, dried overnight, estimate of diameter

## CN[C@H](CC(C)C)C(=O)N[C@H]1C(=O)N[C@@H](CC(N)=O)C(=O)N[C@H]2C(=O)N[C@H]3C(=O)N[C@H](C(=O)N[C@H](C(=O)O)c4cc(O)cc(O)c4-c4cc3ccc4O)[C@H](O[C@H]3C[C@](C)(N)[C@@H](O)[C@H](C)O3)c3ccc(c(Cl)c3)Oc3cc2cc(c3O[C@@H]2O[C@H](CO)[C@@H](O)[C@H](O)[C@H]2O[C@H]2C[C@](C)(NCc3ccc(-c4ccc(Cl)cc4)cc3)[C@@H](O)[C@H](C)O2)Oc2ccc(cc2Cl)[C@H]1O [oritavancin, N-(4-(4-chlorophenyl)benzyl)A82846B]
[1]; 25 μg (1.25 mg/ml) in 4% P80/Span 80 (1:1), dried overnight
  Inhibition zone diameter: 17 mm and 18, 18 mm
[1]; Staphylococcus aureus, MRSA, 25 μg (1.25 mg/ml) in 4% P80/Span 80 (1:1), dried overnight, read-out: Inhibition zone diameter
  zone of inhibition at 25 µg/disc: 18 mm
[1]; Staphylococcus aureus, MRSA, 360 μg in 5% P80, Average of experiments, no prediffusion
  zone of inhibition at 360 µg/disc: 15 ± 0.6 mm
[1]; Staphylococcus aureus, MRSA, 360 μg in 5% P80, Average of experiments, prediffusion
  zone of inhibition at 360 µg/disc: 17.4 ± 0.5 mm
[1]; Staphylococcus aureus, MRSA, 360 μg in 5% P80, Experiment 1, disks stored 14 days, 3 h prediffusion at room temperature
  zone of inhibition at 360 µg/disc: 17.8 ± 0.4 mm
[1]; Staphylococcus aureus, MRSA, 360 μg in 5% P80, Experiment 2, disks stored 8 days, 3 h prediffusion at room temperature
  zone of inhibition at 360 µg/disc: 17 mm
[1]; Staphylococcus aureus, MRSA, 192 h, 360 μg in 5% P80, Experiment 2, disks stored 8 days, no prediffusion
  zone of inhibition at 360 µg/disc: 14.5 mm
[1]; Staphylococcus aureus, MRSA, 336 h, 360 μg in 5% P80, Experiment 1, disks stored 14 days, no prediffusion
  zone of inhibition at 360 µg/disc: 15.5 mm
[2]; NRS2, 25 μg (20 μl of 1.25 mg/ml) in 4% P80/Span 80 (1:1), calcium alginate swab, dried overnight
  Inhibition zone diameter: 10 mm and 12, 12 mm
[2]; Staphylococcus aureus, NRS2, 3 h, NRS2, 360 μg oritavancin, excipient 10% HPCD, disks made same day, 3 h prediffusion, average of 2 disks, read-out: Average zone diameter
  zone of inhibition at 360 µg/disc: 17.5 mm
[2]; [3]
  zone of inhibition at 90 µg/disc: 14 mm
  zone of inhibition at 180 µg/disc: 14.8 mm
[2]; Staphylococcus aureus, NRS2, 192 h, NRS2, 360 μg in 5% P80, Experiment 2, disks stored 8 days, no prediffusion, read-out: Zone diameter (mm ± SD)
  zone of inhibition at 360 µg/disc: 14.3 ± 0.4 mm
[2]; Staphylococcus aureus, NRS2, 192 h, NRS2, 360 μg oritavancin, 2.5% P80, disks stored 8 days, prediffusion, read-out: Average zone diameter
  zone of inhibition at 360 µg/disc: 15 mm
[2]; [4]
  zone of inhibition at 90 µg/disc: 15 mm
  zone of inhibition at 180 µg/disc: 16 mm
[2]; [5]
  zone of inhibition at 90 µg/disc: 15.8 mm
  zone of inhibition at 180 µg/disc: 16 mm
[2]; Staphylococcus aureus, NRS2, 336 h, NRS2, 360 μg in 5% P80, Experiment 1, disks stored 14 days, no prediffusion, read-out: Zone diameter (mm ± SD)
  zone of inhibition at 360 µg/disc: 15.5 mm
[2]; Staphylococcus aureus, NRS2, 336 h, NRS2, 360 μg oritavancin, 5% P80, disks stored 14 days, prediffusion, read-out: Average zone diameter
  zone of inhibition at 360 µg/disc: 18 mm
[2]; Staphylococcus aureus, NRS2, 336 h, NRS2, 360 μg oritavancin, 10% P80, disks stored 14 days, prediffusion, read-out: Average zone diameter
  zone of inhibition at 360 µg/disc: 16.5 mm
[2]; [6]
  zone of inhibition at 12.5 µg/disc: 12.5 mm
  zone of inhibition at 200 µg/disc: 10 mm
[2]; [7]
  zone of inhibition at 12.5 µg/disc: 13 mm
  zone of inhibition at 200 µg/disc: 13 mm
[2]; Staphylococcus aureus, NRS2, NRS2, 25 μg (20 μl of 1.25 mg/ml) in 4% P80/Span 80 (1:1), calcium alginate swab, dried overnight, read-out: Inhibition zone diameter
  zone of inhibition at 1250 µg/mL: 16 mm
[2]; Staphylococcus aureus, NRS2, NRS2, 25 μg in 4% P80/Span 80 (1:1), cotton swab, dried overnight, estimate of diameter
  zone of inhibition at 25 µg/disc: 17 mm
[2]; Staphylococcus aureus, NRS2, NRS2, 50 μg in 4% P80/Span 80 (1:1), calcium alginate swab, dried overnight, read-out: Inhibition zone diameter
  zone of inhibition at 50 µg/disc: 15 mm
[2]; Staphylococcus aureus, NRS2, NRS2, 50 μg in 4% P80/Span 80 (1:1), cotton swab, dried overnight, estimate of diameter
  zone of inhibition at 50 µg/disc: 17 mm
[2]; Staphylococcus aureus, NRS2, NRS2, 50 μg, 4% P80/Span 80 ratio 50:50, dried overnight, estimate of diameter
  zone of inhibition at 50 µg/disc: 16 mm
[2]; Staphylococcus aureus, NRS2, NRS2, 50 μg, 4% P80/Span 80 ratio 60:40, dried overnight, estimate of diameter
  zone of inhibition at 50 µg/disc: 15 mm
[2]; Staphylococcus aureus, NRS2, NRS2, 50 μg, 4% P80/Span 80 ratio 70:30, dried overnight, estimate of diameter
  zone of inhibition at 50 µg/disc: 14 mm
[2]; Staphylococcus aureus, NRS2, NRS2, 50 μg, 4% P80/Span 80 ratio 80:20, dried overnight, estimate of diameter
  zone of inhibition at 50 µg/disc: 14 mm
[2]; Staphylococcus aureus, NRS2, NRS2, 50 μg, 4% P80/Span 80 ratio 90:10, dried overnight, estimate of diameter
  zone of inhibition at 50 µg/disc: 12 mm
[2]; Staphylococcus aureus, NRS2, NRS2, 100 μg in 4% P80/Span 80 (1:1), calcium alginate swab, dried overnight, read-out: Inhibition zone diameter
  zone of inhibition at 100 µg/disc: 11 mm
[2]; Staphylococcus aureus, NRS2, NRS2, 360 μg in 5% P80, Average of experiments, no prediffusion, read-out: Zone diameter (mm ± SD)
  zone of inhibition at 360 µg/disc: 14.9 ± 0.8 mm
